In PubChem BioAssay (NCI):
Values joined by “and” are separate entries in the source; they are usually repeats but may differ in a detail not shown here. Equal entries are not always repeated.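 Five compound concentrations were applied to cells in 96-well plates for 48 hours; endpoints were derived by simple linear interpolation of the resulting dose-response curve. GI50 is the concentration that inhibits growth by half. TGI marks complete inhibition of growth.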

Experiments:
Assay in all cases: NCI tumour cell line growth inhibition, 48 h
[1] = tested on: NCI-H226 lung
[2] = tested on: RPMI-8226 leukemia
[3] = tested on: HL-60(TB) leukemia
[4] = tested on: SF-539 CNS
[5] = tested on: EKVX NSCLC
[6] = tested on: IGROV1 ovarian
[7] = tested on: TK-10 renal
[8] = tested on: SNB-75 CNS
[9] = tested on: 786-0 renal
[10] = tested on: A498 renal

Row | SMILES | TGI [1] | GI50 [2] | TGI [2] | GI50 [3] | TGI [3] | GI50 [4] [µM] | TGI [4] | GI50 [5] [µM] | TGI [5] | GI50 [6] | TGI [6] | GI50 [7] [µM] | TGI [7] | GI50 [8] [µM] | TGI [8] | GI50 [9] [µM] | TGI [9] | GI50 [10] [µM] | TGI [10] | GI50 [1] [µM]
1 | COC1CC(C)C(OC)c2cc(O)cc(c2O)NC(=O)/C(C)=C/C=C\C(C)C(OC(N)=O)/C(C)=C\C(C)C1OC (stereo not drawn) | 24.3 µM and 24.4 µM | 0.174 µM and 0.383 µM | 32.4 µM and 5.93 µM | 0.075 µM and 0.227 µM and 0.0937 µM | 1.48 µM and 0.578 µM | 0.271 | 10.2 µM and 8.61 µM | 7.95 | 25 µM and 22.9 µM | 0.273 µM and 0.506 µM | 15.9 µM and 8 µM | 2.92 | 21.1 µM and 10.6 µM | 0.245 | 18.2 µM and 3.42 µM | 4.62 | 11.5 µM and 24.3 µM | 18.4 | 38.1 µM and 14.8 µM | –
2 | COc1cc(OC)c(/C=C/C(=O)c2ccc(Nc3ncnc4ccccc34)cc2)c(OC)c1 | 3 µM | 0.687 µM | – | 0.389 µM | 2.19 µM | 0.837 | 2.31 µM | 1.69 | 8.99 µM | 1.93 µM | 20.3 µM | 1.54 | 3.68 µM | 0.305 | 1.55 µM | 1.47 | 3.55 µM | 0.282 | 2.13 µM | 1.03
3 | c1ccc2cc(Cn3cc[n+](Cc4ccc5ccccc5c4)c3)ccc2c1 | 14.3 µM | 0.348 µM | 1.97 µM | 0.264 µM | 1.35 µM | 1.98 | 9.27 µM | 2.51 | 15.5 µM | 0.659 µM | 3.75 µM | 3.32 | 14.3 µM | 0.328 | 2.91 µM | 4.4 | 19 µM | 0.0254 | 4.69 µM | 1.72
4 | O=C(O)C(Br)C(Br)C(=O)O (stereo not drawn) | > 100 µM | – | > 100 µM | – | > 100 µM | – | > 100 µM | – | > 100 µM | – | > 100 µM | – | > 100 µM | – | > 100 µM | – | > 100 µM | – | > 100 µM | –
5 | O=C1OC(c2ccccc2)(c2ccccc2)c2ccc3ccc(F)cc3c21 | > 100 µM | – | > 100 µM | – | > 100 µM | – | > 100 µM | – | > 100 µM | – | > 100 µM | – | > 100 µM | – | > 100 µM | – | > 100 µM | – | > 100 µM | –
6 | Nc1ncnc2c1c(-c1ccc(Oc3ccccc3)cc1)nn2C[C@H]1SSC[C@@H]1O | 5.15 µM | 4.2 µM | 20.4 µM | 1.52 µM | 4.84 µM | 1.41 | 12 µM | 0.365 | 12.1 µM | 1.43 µM | 8.11 µM | 0.585 | 2.54 µM | 3.02 | 14.8 µM | 3.09 | 12 µM | 1.66 | 4.44 µM | 1.73
7 | CCn1c(-c2c(Cl)cc(O)cc2Cl)cc2c(Cl)cc(O)cc21 | > 100 µM | – | 87.6 µM | – | 26.2 µM | – | 23.2 µM | – | 58.5 µM | – | 12.9 µM | – | 59.2 µM | – | 20.9 µM | – | 24.8 µM | – | 30.1 µM | –
8 | Nc1ncn(C2OC(COP(=O)(O)O)C(O)C2O)c(=O)n1 (stereo not drawn) | > 100 µM | – | > 100 µM | – | > 100 µM | – | > 100 µM | – | > 79 µM | – | > 100 µM | – | > 100 µM | – | > 100 µM | – | > 100 µM | – | > 100 µM | –
9 | O=C1C=CC(=O)C2C1Cc1ccccc1C2c1ccccc1 (stereo not drawn) | > 100 µM | – | 67.6 µM | – | 53.1 µM | – | > 100 µM | – | 72.9 µM | – | > 100 µM | – | > 100 µM | – | > 100 µM | – | > 100 µM | – | 73.1 µM | –
10 | CCN(CC)CCC(=O)OC1C(C)=CC(C)C(=O)CC(C(C)CC2CCC(O)C(OC)C2)OC(=O)C2CCCCN2C(=O)C(=O)[C@@]2(O)OC(CCC2C)CC(OC)\C(C)=C/C=C/C=C/C(C)CC(C)C(=O)C1OC (stereo partly drawn) | 26.8 µM | – | 43.2 µM | – | 16 µM | – | 15.2 µM | – | 17.1 µM | – | 14.7 µM | – | 23.2 µM | – | 0.971 µM | – | 22.4 µM | – | 17.6 µM | –
11 | O=S(=O)(c1ccccc1)c1nccs1 | > 100 µM | – | > 100 µM | – | > 100 µM | – | > 100 µM | – | > 100 µM | – | > 100 µM | – | > 100 µM | – | > 100 µM | – | > 100 µM | – | > 100 µM | –
12 | C=C1C(=O)O[C@H]2[C@H]1CC/C(Cn1cc(Cc3c[nH]c4ccccc34)nn1)=C\CC[C@@]1(C)O[C@@H]21 | 4.75 µM | 2.11 µM | 5.35 µM | 2.02 µM | 4.74 µM | 1.76 | 3.35 µM | 1.84 | 3.98 µM | 1.92 µM | 3.84 µM | 1.82 | 3.4 µM | 3.08 | 12.5 µM | 1.77 | 3.48 µM | 3.9 | 14.3 µM | 2.1
13 | CCCCC[C@H]1CC=C2C(=O)C=C[C@@H]2CC=CCCCC(=O)O[C@@H](CCCCC)CC=C2C(=O)C=C[C@@H]2CC=CCCCC(=O)O[C@@H](CCCCC)CC=C2C(=O)C=C[C@@H]2CC=CCCCC(=O)O1 | 3.81 µM | 0.256 µM | 0.821 µM | 0.243 µM | 0.76 µM | 0.322 | > 8.75 µM | 0.414 | 6.31 µM | 0.279 µM | 1.57 µM | 0.478 | 3.53 µM | 4.8 | > 8.75 µM | 0.325 | 1.43 µM | 0.75 | 2.41 µM | 1.13
14 | Oc1[nH]c(N=C2N=c3ccccc3=N2)c2ccccc12 | 30 µM | 14.9 µM | 72.1 µM | 13.7 µM | 52.9 µM | 14.3 | 40.2 µM | 4.22 | 52.2 µM | 1.28 µM | 33.7 µM | 21 | 55.4 µM | 10.9 | 31.5 µM | 17.2 | 39.6 µM | 6.31 | 19.9 µM | 10.4
15 | COc1cccc(Sc2ccc([N+](=O)[O-])c3no[n+]([O-])c23)c1 | 53.5 µM | 3.67 µM | 21 µM | 5.12 µM | 14.6 µM | 14.7 | 28.1 µM | 14.8 | 39.5 µM | 5.63 µM | 20.8 µM | 10.9 | 24.7 µM | 13.9 | 39.4 µM | 19.5 | 34.8 µM | 15.7 | 34.6 µM | 18.2
16 | CC(CN1CC(=O)NC(=O)C1)N1CC(=O)NC(=O)C1 (stereo not drawn) | 505 µM | – | > 750 µM | – | 690 µM | – | > 750 µM | – | > 750 µM | – | > 725 µM | – | > 702 µM | – | > 715 µM | – | > 750 µM | – | > 750 µM | –
